Reference: publication PMC8625693, “Synthesis and Structure-Activity Relationships of New 2-Phenoxybenzamides with Antiplasmodial Activity” (Pharmaceuticals, 2021)
Like-named read-outs stand apart in the source and are kept apart here.

How the values were obtained:
[1] = In vitro cytotoxicity with L-6 cells (Alamar Blue); format: cell-based, rat
Procedure: (§1) All newly synthesized compounds were tested for their antiplasmodial activity against the chloroquine-sensitive strain Plasmodium falciparum NF54. Cytotoxicity was determined using rat skeletal myofibroblasts (L-6 cells). As standards chloroquine and podophyllotoxin were used.
(§2) In vitro cytotoxicity was determined using a primary cell line of rat skeletal myofibroblasts. The assay was performed in 96-well microtiter plates, each well containing 0.1 mL of RPMI 1640 medium, supplemented with 0.1% L-glutamine (200 mM) and 10% fetal bovine serum, as well as 4000 L-6 cells. Serial drug dilutions of 11 3-fold dilution steps (covering a range from 100–0.002 µg/mL) were prepared. After 70 h of incubation time, the plates were inspected under an inverted microscope to ensure sterile conditions and growth of the controls. […] Podophyllotoxin (Sigma P4405) was used as control.

[2] = tested on: P. falciparum NF54; test: In vitro microplate assay against P. falciparum NF54 (3H-hypoxanthine incorporation, erythrocytic stages); format: cell-based, Plasmodium falciparum
Procedure: as §1
In vitro activity against erythrocytic stages of P. falciparum was determined with a ^3H-hypoxanthine incorporation assay, using the chloroquine sensitive NF54 strain [44]. Chloroquine (Sigma C6628) was used as standard. Test compounds were dissolved in DMSO at 10 mg/mL and added to parasite cultures incubated in RPMI 1640 medium without hypoxanthine, supplemented with HEPES (5.94 g/L, NaHCO3 (2.1 g/L), neomycin (100 U/mL), Albumax (5 g/L) and washed human red blood cells A^+ at 2.5% hematocrit (0.3% parasitemia). Serial drug dilutions of 11 3-fold dilution steps (covering a range from 100–0.002 µg/mL) were prepared. The 96-well plates were incubated at a humidified atmosphere at 37 °C; 4% CO2, 3% O2, 93% N2. After 48 h, 0.05 mL of ^3H-hypoxanthine (=0.5 µCi) was added to each well. The plates were incubated for another 24 h under the same conditions. Then, the plates were harvested with a Betaplate cell harvester (Wallac, Zurich, Switzerland). The red blood cells were transferred onto glass fiber filter and washed with distilled water. The dried filters were inserted into a plastic foil with 10 mL of scintillation fluid and counted in a Betaplate liquid scintillation counter. IC50 values were determined from sigmoidal inhibition curves by linear regression using Microsoft Excel. Chloroquine was used as control.

[3] = target: T1, CYP3A4 (Homo sapiens, UniProt P08684); test: Cytochrom P450 3A4 inhibition assay (P450-Glo, luciferin-IPA); format: in vitro ADME; settings: recombinant human CYP3A4 Supersomes (+ oxidoreductase + b5), probe luciferin-IPA, stock solutions diluted to 20 µM, pH 7.4, triplicate
T1 construct: purchased Corning, Glendale, AZ, USA
T1 sequence (P08684 2-503 limits assumed): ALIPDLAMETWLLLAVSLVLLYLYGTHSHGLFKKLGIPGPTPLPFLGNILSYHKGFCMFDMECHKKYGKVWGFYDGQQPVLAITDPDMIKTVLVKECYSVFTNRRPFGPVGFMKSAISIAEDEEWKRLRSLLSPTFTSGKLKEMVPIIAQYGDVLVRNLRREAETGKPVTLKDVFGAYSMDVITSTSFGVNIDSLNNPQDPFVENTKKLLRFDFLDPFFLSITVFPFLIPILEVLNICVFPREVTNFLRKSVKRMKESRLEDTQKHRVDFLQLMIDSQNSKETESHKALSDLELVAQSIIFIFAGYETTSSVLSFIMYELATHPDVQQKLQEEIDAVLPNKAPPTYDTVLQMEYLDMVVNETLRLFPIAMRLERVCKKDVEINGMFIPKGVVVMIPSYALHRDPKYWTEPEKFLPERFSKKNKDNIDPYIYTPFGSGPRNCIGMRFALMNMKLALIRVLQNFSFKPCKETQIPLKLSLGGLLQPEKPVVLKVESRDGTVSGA
Procedure: The CYP3A4 inhibition assay was performed using 96-well White Plates (Greiner Bio-One) at a pH of 7.4. […] Stock solutions were further diluted to a final concentration of 20 µM using water (HPLC grade). The luciferin IPA stock solution (3 mM) was diluted to a final concentration of 0.3 mM using water (HPLC grade). The CYP3A4 reaction mixture was prepared by mixing water (HPLC grade) with potassium phosphate buffer (1 M), luciferin IPA (0.3 mM) and CYP3A4 membrane (1 pmol/µL). The control reaction mixture was prepared using water (HPLC grade), potassium phosphate buffer (1 M), luciferin IPA (0.3 mM) and membrane without CYP activity (1 pmol/µL). Solutions A and B of the NADPH regeneration system were mixed and HPLC grade water was added. The reconstituted luciferin detection reagent was prepared by mixing the reconstituted buffer with esterase with the luciferin detection reagent. Then, solutions of test compounds and standard were added to the wells of the 96-well White Plate, each was tested in triplicate. The CYP3A4 reaction mixture was added to each well and the plate was incubated for 10 min at room temperature. After that, the NADPH regeneration system was added, inducing the reaction followed by an incubation time of 10 min at ambient temperature. By adding the reconstituted luciferin detection reagent, the reaction was terminated, and a luminescent signal was formed. Luminescence was measured by a SpectraMax M3 UV plate reader (Molecular Devices). The relative light units (RLU) were received from a calibration curve with beetle luciferin. […] The CYP3A4 inhibition (%) was calculated from the RLU.

[4] = Parallel artificial membrane permeability assay (PAMPA); settings: pH 7.4
Procedure: The PAMPA was performed using a Corning Gentest Pre-coated PAMPA Plate System at a pH of 7.4. It consists of 96-well polystyrene plates, whereas the donor-plate (bottom plate) is a conventional 96-well microtiter plate. The base of the acceptor-plate (top plate) consists of a porous membrane. The pores are lined with a lipid-oil-lipid trilayer. Stock solutions (10 mM) of each test compound were prepared in DMSO or MeOH and then further diluted to a final concentration of 200 µM with phosphate-buffered saline (PBS) at a pH of 7.4. Compound solutions were then added to the wells of the donor plate and pure PBS was added to each well of the acceptor plate. Compounds and negative control (pure PBS) were tested in quadruplicates. Donor and acceptor plate were coupled and incubated at ambient temperature for 5 h. After that, the plates were separated and solutions from each well of both plates were transferred onto 96-well UV-Star Microplates (Greiner Bio-One). The UV-absorption was measured at different wavelengths (between 200 and 300 nm) by a SpectraMax M3 UV plate reader (Molecular Devices). The concentrations were received from a calibration curve for each substance. The plates were analyzed at a wavelength were the R^2 value of the calibration curve was higher than 0.99 [48]. […] (2) cequ=cDt* VD+cAt* VA/VD+VA where: • cD(t)—compound concentration in donor well at time t.
Recovery of compounds from donor and acceptor wells (mass retention) was calculated as shown in the equation below. Data were only accepted when recovery exceeded 70%. (3) R=1−cDt∗ VD+cAt∗ VA/c0∗ VD where: • R—mass retention (%); • cA(t)—compound concentration in acceptor well at time t; • cD(t)—compound concentration in donor well at time t; • c0—initial compound concentration in donor well; • VD—donor well volume; • VA—acceptor well volume.

[5] = tested on: L-6 cells; test: In vitro cytotoxicity with L-6 cells (Alamar Blue); format: cell-based, rat
Procedure: as §1, §2

[6] = rat skeletal myofibroblasts, average of four determinations, read-out: Cytotoxicity L-6 Cells IC50
[7] = rat, Cytotoxicity L-6 Cells IC50
[8] = Plasmodium falciparum, NF54, chloroquine-sensitive strain NF54, blood stages, average of four determinations, read-out: P.f. NF54 IC50
[9] = chloroquine-sensitive strain NF54, blood stages, average of four determinations, read-out: P.f. NF54 IC50

| Structure (SMILES) | IC50 [2, 8] | IC50 [2, 9] | inhibition at 10 min, 20 µM [3] | Papp at 5 h, 200 µM [4] | IC50 at 72 h [1, 7] | also measured |
| --- | --- | --- | --- | --- | --- | --- |
| CCN(CC)CCCC(C)Nc1ccnc2cc(Cl)ccc12 (stereo not shown) [CQ, chloroquine, reference compound] |  |  |  |  |  | IC50 at 72 h [1, 6]: 90.9 µM; IC50 ([2]; Plasmodium falciparum, NF54, read-out: P.f. NF54 IC50): 0.009 µM |
| CC(C)(C)OC(=O)N1CCN(c2ccccc2NC(=O)c2cccc(C(F)(F)F)c2Oc2ccccc2)CC1 [Compound 6, tert-Butyl-4-{2-[2-phenoxy-3-(trifluoromethyl)benzamido]phenyl}piperazine-1-carboxylate] | 1.01 to 1.15 µM | 1.01 µM | 87% | 30 nm/s |  | IC50 at 72 h ([1]; rat, rat skeletal myofibroblasts, average of four determinations, read-out: Cytotoxicity L-6 Cells IC50): 128 µM |
| CC(C)(C)OC(=O)Nc1ccccc1NC(=O)c1cccc(C(F)(F)F)c1Oc1ccc(F)cc1 [Compound 13, tert-Butyl-N-{2-[2-(4-fluorophenoxy)-3-(trifluoromethyl)benzamido]phenyl}carbamate] | 1.9 µM |  | 90% | 87.2 nm/s |  |  |
| Cn1c(=O)c2c(ncn2C)n(C)c1=O [caffeine, reference compound] |  |  |  | 80 nm/s |  |  |
| O=C(Nc1ccccc1)c1cccc(C(F)(F)F)c1Oc1ccc(F)cc1 [Compound 12, 2-(4-Fluorophenoxy)-N-phenyl-3-(trifluoromethyl)benzamide] | 9.33 to 21.3 µM | 9.33 µM |  | 101 nm/s | 129 to 202 µM | IC50 ([5]; rat, 72 h): 202 µM |
| CC(=O)Nc1ccc(Oc2c(C(=O)Nc3ccccc3N3CCN(C(=O)OC(C)(C)C)CC3)cccc2C(F)(F)F)cc1 [Compound 8, tert-Butyl-4-{2-[2-(4-acetamidophenoxy)-3-(trifluoromethyl)benzamido]phenyl}piperazine-1-carboxylate] | 1.01 to 1.15 µM | 1.15 µM | 99% | 40.6 nm/s | 73 µM |  |
| CC(C)(C)OC(=O)N1CCN(c2ccccc2NC(=O)c2cccc(C(F)(F)F)c2)CC1 [Compound 7, tert-Butyl-4-{2-[3-(trifluoromethyl)benzamido]phenyl}piperazine-1-carboxylate] | 3.74 µM |  |  | 0.8 nm/s | 113 µM |  |
| COc1cc([C@@H]2c3cc4c(cc3[C@H](O)[C@H]3COC(=O)[C@H]23)OCO4)cc(OC)c1OC [POD, podophyllotoxin, reference compound] |  |  |  |  |  | IC50 [5, 6]: 0.012 µM |
| Nc1ccccc1NC(=O)c1cccc(C(F)(F)F)c1Oc1ccc(F)cc1 [Compound 14, N-(2-Aminophenyl)-2-(4-fluorophenoxy)-3-(trifluoromethyl)benzamide] |  |  |  | 114 nm/s | 129 µM |  |

Continued, in another order:

| IC50 [2, 8] | IC50 [2, 9] | inhibition at 10 min, 20 µM [3] | Papp at 5 h, 200 µM [4] | Structure (SMILES) | IC50 at 72 h [1, 7] | also measured |
| --- | --- | --- | --- | --- | --- | --- |
| 51.5 to 51.9 µM | 55.9 µM | 88% | 129 nm/s | Nc1ccc(NC(=O)c2cccc(C(F)(F)F)c2Oc2ccc(F)cc2)cc1 [Compound 51, N-(4-Aminophenyl)-2-(4-fluorophenoxy)-3-(trifluoromethyl)benzamide] | 130 µM |  |
|  |  |  | 74.4 nm/s | NC(=O)N1CCN(c2ccccc2NC(=O)c2cccc(C(F)(F)F)c2Oc2ccc(F)cc2)CC1 [Compound 21, N-[2-(4-Carbamoylpiperazin-1-yl)phenyl]-2-(4-fluorophenoxy)-3-(trifluoromethyl)benzamide] | 31.8 to 35.4 µM | IC50 ([5]; rat, 72 h): 35.4 µM |
| 0.617 to 0.659 µM | 0.659 µM |  | 1.1 nm/s | CC(C)(C)C(=O)N1CCN(c2ccccc2NC(=O)c2cccc(C(F)(F)F)c2Oc2ccccc2)CC1 [Compound 56, N-{2-[4-(2,2-Dimethylpropanoyl)piperazin-1-yl]phenyl}-2-phenoxy-3-(trifluoromethyl)benzamide] | 185 to 190 µM | IC50 ([5]; rat, 72 h): 190 µM |
| 3.3 µM |  | 96% | 61.7 nm/s | CC(C)(C)OC(=O)N1CCN(c2cccc(NC(=O)c3cccc(C(F)(F)F)c3Oc3ccc(F)cc3)c2)CC1 [Compound 36, tert-Butyl-4-{3-[2-(4-fluorophenoxy)-3-(trifluoromethyl)benzamido]phenyl}piperazine-1-carboxylate] | 124 µM |  |
| 0.269 µM |  | 93% | 0.9 nm/s | CC(C)(C)OC(=O)N1CCN(c2ccc(NC(=O)c3cccc(C(F)(F)F)c3Oc3ccc(F)cc3)cc2)CC1 [Compound 37, tert-Butyl-4-{4-[2-(4-fluorophenoxy)-3-(trifluoromethyl)benzamido]phenyl}piperazine-1-carboxylate] | 124 µM |  |
| 2.53 µM |  |  | 101 nm/s | CC(=O)N1CCN(c2ccccc2NC(=O)c2cccc(C(F)(F)F)c2Oc2ccc(F)cc2)CC1 [Compound 17, N-[2-(4-Acetylpiperazin-1-yl)phenyl]-2-(4-fluorophenoxy)-3-(trifluoromethyl)benzamide] | 27.1 µM |  |
| 51.5 to 51.9 µM | 51.5 µM |  | 184 nm/s | Nc1cccc(NC(=O)c2cccc(C(F)(F)F)c2Oc2ccc(F)cc2)c1 [Compound 50, N-(3-Aminophenyl)-2-(4-fluorophenoxy)-3-(trifluoromethyl)benzamide] | 104 µM |  |
| 2.3 µM |  |  |  | CN(C)C(=O)N1CCN(c2ccccc2NC(=O)c2cccc(C(F)(F)F)c2Oc2ccc(F)cc2)CC1 [Compound 22, N-{2-[4-(N,N-Dimethylcarbamoyl)piperazin-1-yl]phenyl}-2-(4-fluorophenoxy)-3-(trifluoromethyl)benzamide] | 20.2 µM |  |
| 4.66 µM |  | 60% | 112 nm/s | CC(C)(C)C(=O)N1CCN(c2ccc(NC(=O)c3cccc(C(F)(F)F)c3Oc3ccccc3)cc2)CC1 [Compound 55, N-{4-[4-(2,2-Dimethylpropanoyl)piperazin-1-yl]phenyl}-2-phenoxy-3-(trifluoromethyl)benzamide] | 89.8 µM |  |
